Measured values from patent publication US10080366B2, “Agent for increasing sugar content in fruit” (RIKEN, priority 2012, dated 2018).
Where two headings read alike, the source gives them in different places.

What was measured:
Pinot noir = assay: Acceptability of fruit for wine (Example 11); type: in vivo, grape; conditions: Example 1 sample
Excerpt: As in the case where agriculture workers check whether or not a berry can be used for wine, the criteria of the acceptability were based the appearance (appearance associated with mold, rot, or the like, whether or not the fruit juice or fruit pulp was lost, and the like), taste (whether or not the berry was normal, when eaten, and the like), and odor (whether or not a foreign odor or the like was present). A berry having no problem in terms of any of the appearance, taste, and odor was determined to be acceptable, and a berry having any problem was determined to be not acceptable.

[1] = system: fruit of grape (variety: Red Globe)
Experimental: An agent for increasing a sugar content in a fruit (containing Sorbon T-20 as a spreader/sticker at a final concentration of 200 μL/L) diluted with water to have a potassium hydrogen carbonate concentration of 10 g/L was prepared. The mass of fruit of grape (variety: Red Globe) purchased on the market was measured. Then, the prepared agent for increasing a sugar content in a fruit was applied by spraying to the fruit of grape. Then, the fruit of grape was allowed to stand in an air-conditioned greenhouse (temperature: 25° C.), and the mass was measured over time (date of application: Apr. 27, 2011; dates of test: May 2, 2011, May 6, 2011, May 9, 2011, May 11, 2011, May 13, 2011, and May 16, 2011). In addition, as a control, the mass of untreated grape was measured on each date of measurement in the same manner.
On the basis of the measured mass, the estimated amount (cumulative value) of transpiration and the estimated amount of transpiration per day were calculated. The results are shown in Tables 5 and 6 and FIGS. 10 and 11.
Note that the vertical axis in FIG. 10 represents the mass (g) of the fruit of grape on each of the dates of measurement per 100 g of the fruit of grape on the date of application, and the vertical axis in FIG. 11 represents the estimated amount (g) of transpiration on each of the dates of measurement per 100 g of the fruit of grape on the date of application. The estimated amount (g) of transpiration on each of the dates of measurement per 100 g of the fruit of grape on the date of application=(the mass (g) of the fruit of grape on the date of application−the mass (g) of the fruit of grape on the date of measurement)/the mass of the fruit of grape on the date of application×100

[2] = system: fruit of grape (variety: Red Globe); remark: listed apart in the source
Experimental: Agents for increasing a sugar content in a fruit (containing Sorbon T-20 as a spreader/sticker at a final concentration of 200 μL/L) diluted with water to have the concentrations of potassium hydrogen carbonate shown in Table 4 were prepared. The mass of fruit of grape (variety: Red Globe) purchased on the market was measured. Then, the prepared agents for increasing a sugar content in a fruit were applied by spraying to the fruit of grape, which was then allowed to stand in an air-conditioned greenhouse (temperature: 25° C.). The mass of the fruit of grape was measured over time (date of application: Mar. 10, 2011). In addition, as a control, the mass of untreated grape was measured on each date of measurement in the same manner. […] Note that the decrease ratio (cumulative, %) represents the percentage (%) of the mass decreased from the date of application to each of the dates of measurement, and the decrease ratio (%/day) represents the average ratio (%) of decrease in mass in a period between each of the dates of measurement and the preceding date of measurement (=(the mass (g) on the preceding date of measurement of each of the dates of measurement−the mass (g) on the date of measurement)/the mass (g) on the preceding date of measurement of the date of measurement/the number of days from the preceding date of measurement of the date of measurement to the date of measurement×100).

[3] = approximately 3 weeks later (19 days later)

## O=C([O-])O.[K+] [Potassium hydrogen carbonate, potassium hydrogen carbonate]
Pinot noir; 5 g/L
  Acceptable ratio (%) of fruit: 75%
Pinot noir; 10 g/L
  Acceptable ratio (%) of fruit: 80%
[1]; 5 days later
  Estimated amount (g) of transpiration per 100 g of fruit on date of application: 17.4 g
[1]; 5 days later (applied Apr. 27)
  Mass (g) of fruit per 100 g of fruit on date of application: 82.6 g
[1]; 9 days later
  Estimated amount (g) of transpiration per 100 g of fruit on date of application: 29.5 g
  Mass (g) of fruit per 100 g of fruit on date of application: 70.5 g
[1]; 12 days later
  Estimated amount (g) of transpiration per 100 g of fruit on date of application: 37.2 g
  Mass (g) of fruit per 100 g of fruit on date of application: 62.8 g
[1]; 14 days later
  Estimated amount (g) of transpiration per 100 g of fruit on date of application: 42.6 g
  Mass (g) of fruit per 100 g of fruit on date of application: 57.4 g
[1]; 16 days later
  Estimated amount (g) of transpiration per 100 g of fruit on date of application: 47.9 g
  Mass (g) of fruit per 100 g of fruit on date of application: 52.1 g
[1]; 19 days later
  Estimated amount (g) of transpiration per 100 g of fruit on date of application: 55.3 g
  Mass (g) of fruit per 100 g of fruit on date of application: 44.7 g
[1]; [3]
  mass as % of the mass on the date of application: 44.7%
  ratio of transpiration of the fruit: 55.3%
[2]; 5 g/L and 10 g/L
  ratio of decrease in mass compared with untreated: higher ratios of decrease in mass than the untreated fruit
[2]; 5 g/L, Mar. 10 (date of application)
  Mass: 240.4 g
[2]; 5 g/L, Mar. 11
  Decrease ratio (%/day): 2.6 %/day
  Decrease ratio (cumulative %): 2.6%
  Mass: 234.1 g
[2]; 5 g/L, Mar. 14
  Decrease ratio (%/day): 2.5 %/day
  Decrease ratio (cumulative %): 9.9%
  Mass: 216.7 g
[2]; 5 g/L, Mar. 15
  Decrease ratio (%/day): 2.5 %/day
  Decrease ratio (cumulative %): 12.1%
  Mass: 211.4 g
[2]; 5 g/L, Mar. 16
  Decrease ratio (%/day): 2.2 %/day
  Decrease ratio (cumulative %): 14.0%
  Mass: 206.7 g
[2]; 5 g/L, Mar. 18
  Decrease ratio (%/day): 2.1 %/day
  Decrease ratio (cumulative %): 17.7%
  Mass: 197.8 g
[2]; 5 g/L, Mar. 22
  Decrease ratio (%/day): 2.0 %/day
  Decrease ratio (cumulative %): 24.1%
  Mass: 182.4 g
[2]; 5 g/L, Mar. 23
  Decrease ratio (%/day): 2.8 %/day
  Decrease ratio (cumulative %): 26.3%
  Mass: 177.3 g
[2]; 5 g/L, Mar. 24
  Decrease ratio (%/day): 2.2 %/day
  Decrease ratio (cumulative %): 27.8%
  Mass: 173.5 g
[2]; 5 g/L, Mar. 30
  Decrease ratio (%/day): 2.3 %/day
  Decrease ratio (cumulative %): 37.8%
  Mass: 149.4 g
[2]; 10 g/L, Mar. 10 (date of application)
  Mass: 200.5 g
[2]; 10 g/L, Mar. 11
  Decrease ratio (%/day): 2.9 %/day
  Decrease ratio (cumulative %): 2.9%
  Mass: 194.8 g
[2]; 10 g/L, Mar. 14
  Decrease ratio (%/day): 3 %/day
  Decrease ratio (cumulative %): 11.6%
  Mass: 177.2 g
[2]; 10 g/L, Mar. 15
  Decrease ratio (%/day): 3.3 %/day
  Decrease ratio (cumulative %): 14.5%
  Mass: 171.4 g
[2]; 10 g/L, Mar. 16
  Decrease ratio (%/day): 2.9 %/day
  Decrease ratio (cumulative %): 17.0%
  Mass: 166.5 g
[2]; 10 g/L, Mar. 18
  Decrease ratio (%/day): 2.7 %/day
  Decrease ratio (cumulative %): 21.5%
  Mass: 157.4 g
[2]; 10 g/L, Mar. 22
  Decrease ratio (%/day): 2.5 %/day
  Decrease ratio (cumulative %): 29.5%
  Mass: 141.3 g
[2]; 10 g/L, Mar. 23
  Decrease ratio (%/day): 3.6 %/day
  Decrease ratio (cumulative %): 32.0%
  Mass: 136.3 g
[2]; 10 g/L, Mar. 24
  Decrease ratio (%/day): 2.8 %/day
  Decrease ratio (cumulative %): 33.9%
  Mass: 132.5 g
[2]; 10 g/L, Mar. 30
  Decrease ratio (%/day): 2.9 %/day
  Decrease ratio (cumulative %): 45.3%
  Mass: 109.7 g
